Experimental data: patent publication US7579353B2, “Pyridinone derivatives against malaria” (Glaxo Group Limited, priority 2005, dated 2009)
Converted amounts (≈) assume the structure as drawn. Like-named read-outs stand apart in the source and are kept apart here.

How the values were obtained:
Plasmodium falciparum = assay: In vitro anti-malarial activity against Plasmodium falciparum, IC50 assay / [3H]-hypoxanthine incorporation assay; assay type: cell-based; settings: Erythrocyte, parasitized red blood cells, 48 hours
Procedure: In Vitro Anti-malarial Activity Against Plasmodium falciparum
IC50 Assay/[^3H]-Hypoxanthine Assay
Plasmodium falciparum strains.
The culture medium comprised RPMI 1640 with 25 mM HEPES, sodium bicarbonate and glutamine (GIBCO™ cat. ref.: 52400), supplemented with 10% of pooled human sera AB (Irvine Scientific, cat. ref.: 5009) and HT supplement (0.15 mM hypoxanthine and 24 μM thymidine), (GIBCO™ cat. ref.: 41065). Human sera were decomplemented 30 min. at 56° C., aliquoted and stored frozen at −20° C. until use in this culture medium.
Red blood cells O+ stock suspensions were prepared from whole blood bags coming from incomplete blood donation, provided by the Spanish Red Cross (<25 days after sampling). This “whole blood” was aliquoted and stored at 4° C.
To prepare red blood cells for the assay, the whole blood was centrifuged and washed 3 times with RPMI without serum. The upper phase, containing white blood cells was removed. The washed red blood cells were kept as a 50% suspension in complete medium. The prepared cells were stored at 4° C. and were employed in the assay at any time up to 4 days after preparation.
Test compounds were dissolved at 2 mg/ml in 100% DMSO on the day of the assay. If necessary, complete dissolution was achieved by gentle heating (the mixture was heated at a temperature <37° C.) and sonication (sonication bath).
For IC50 determinations, 10 serial 2-fold dilutions were prepared in complete medium in the presence of a constant amount of DMSO.
Plasmodium falciparum strains were maintained in complete medium at an hematocrit of 5% in continuous culture using a method adapted from Trager and Jensen (1, 2).
The parasitemia was calculated by counting the percentage of parasitized erythrocytes by optical microscopy. Thin films of blood were made every day from each culture flask, fixed with methanol and stained for 10 min. in Giemsa (Merck, cat ref.: 1.09204) at 10% in buffered water pH 7.2. The glass slides were observed and counted with an optical microscope (Nikon, Eclipse E200) equipped with a 100× immersion oil objective.
The culture was maintained at an hematocrit of 5%, with a daily change of medium and was diluted when parasitemia had reached about 5%.
[^3H] Hypoxanthine incorporation assay was conducted using a method adapted from Desjardins et al. (3). The assays were performed in 96 wells flat bottom microplates.
1. Serial dilutions of the test compounds (50 μl of a 5× solution/well) were deposited in duplicate. Compounds of the invention were tested in this assay. Chloroquine and Atovaquone were used as control compounds for each assay.
3. [^3H]-Hypoxanthine (Amersham Biosciences, cat. ref.: TRK74) was added extemporaneously to the inoculum suspension at a concentration of 1 μCi/ml (equating to […]). 200 μl of the resulting suspension was distributed into each well (other than the control well H12 described below) leading to a final volume of 250 μl per well, at 2% of hematocrit and 0.5% of parasitemia/well.
4. In each plate, 2 columns were reserved for control wells: • Column 11: Positive control wells: PRBCs with 0.2% DMSO—(i) to determine DMSO solvent effect on parasite growth (at a final concentration of 0.2%) and (ii) to compare with cultures treated with test compounds. • Column 12 (comprising wells A12-H12): • A12-D12—Background value wells: Uninfected RBCs—blank control to obtain the background reading from RBCs without parasites. • E12-G12—Solvent effect wells: PRBCs without DMSO—to determine DMSO solvent effect on PRBCs by comparing these wells with column 11 wells. • H12-Non-radioactive well: PRBCs with cold hypoxanthine—(i) to carry out a thin blood film to determine parasitemia value after incubation by microscopy and (ii) to ensure that the parasites have grown properly during the assay. (200 μl of inoculum suspension was prepared as described above (Items 2 and 3) but with non-tritiated hypoxanthine instead of [3H]-hypoxanthine, then added to this well to a final volume of 250 μl). […]

[1] = Compound solubility determination (gross and equilibrium solubility; FaSSIF, FeSSIF, pH 7.4 PBS, pH 1.0 0.1N HCl, pH 4.5 sodium citrate); assay type: physicochemical; settings: thermodynamic from solid
Procedure: Compound Solubility Determination
An amount of 3 mg solid compound with LC-MS purity ≧95% was required. This amount was split between 3 different glass vials (1.8 ml volume each), placing 1 mg compound into each one.
Organic solvents of HPLC grade were used. Ultra pure water (Milli-Q grade) was used. Buffers were prepared with ultra pure water and filtered using 0.45μ cameo filters. The compositions of each solvent employed in this assay are described below (part III).
2. Determination of Equilibrium Solubility (Assuming Chemical Stability in the Desired Solvent is not a Problem).
For each of the three vial samples prepared as described above, in which the amount of compound was totally dissolved, the following procedure was subsequently carried out: • a) A small amount (approx. 0.1 mg) of additional solid compound was added to the vial to maintain an excess of the compound in the mixture in the form of undissolved solid. • b) The samples were magnetically stirred for 24 hr. If required, additional solid compound (0.1 mg) was added to maintain excess of it and then the samples were stirred again. • c) Then the samples were filtered (Millipore Milex filters nylon 0.2 um) and three aliquots were taken (one from each of the three vials) and analysed by LC-MS. • d) The pH of the final solution in each sample was measured with a pH-meter (WTW pH330i and a pH-electrode Sentix 41).
3. LC-MS Assay for Analytical Quantification
All filtered aliquots were analysed by LC-MS. The analysis was carried out with a Luna 5 μC18 (2) column 4.6×150 mm, using a HP1100 HPLC instrument interfaced with a Waters ZMD-2000 MS spectrometer. The concentration of the final sample as prepared above was calculated from that of a reference calibration curve obtained from serial dilutions of a 2 mM solution of the compound under investigation in DMSO (Aldrich cat. ref.: 27685-5) stock solution.
The analysis of all LC-MS data was performed with MassLynx 3.4 software. Statistical and graphic analysis of data was performed using Microsoft Excel. The concentration (uM) and solubility (ug/ml) for each compound was calculated using the peak areas from the sample and those from the calibration curve.
A) FaSSIF is a solvent which simulates the Fasted State of the Intestinal Fluid. (FaSSIF: Fasted State Simulated Intestinal Fluid).
B) FeSSIF is a solvent which simulates the Fed State of the Intestinal Fluid. (FeSSIF: Fed State Simulated Intestinal Fluid).
C) Solubility at pH 7.4 was determined in phosphate buffered saline (PBS) (Fluka cat. ref: 79383)
D) Solubility at pH 1.0 was determined in 0.1N HCl solution (Scharlau AL0744010C)
E) Solubility at pH 4.5 was determined in sodium citrate 0.5M solution. (Aldrich 25, 127-5)

[2] = 0.1N HCl solution, simulated gastric fluid, pH 1 (HCl), read-out: Solubility at pH 1 (HCl)
[3] = FaSSIF (fasted state simulated intestinal fluid), fassif, read-out: Solubility in FaSSIF
[4] = FeSSIF (fed state simulated intestinal fluid), fessif, read-out: Solubility in FeSSIF
[5] = phosphate buffered saline (PBS), aqueous buffer, pH 7.4 (PBS), read-out: Solubility at pH 7.4 (PBS)
[6] = sodium citrate 0.5M solution, aqueous buffer, pH 4.5 (Na citrate), read-out: Solubility at pH 4.5 (Na citrate)

Row | SMILES | IC50 (Plasmodium falciparum) | further results
1 | Cc1[nH]c(C)c(-c2ccccn2)c(=O)c1Br [Compound W, 5′-Bromo-2′,6′-dimethyl-2,3′-bipyridin-4′-(1′H)-one, reference compound] | 0.5 µg/mL (≈ 1.79 µM) | 
2 | Cc1[nH]c(C)c(-c2ccc(Oc3ccc(OC(F)(F)F)cc3)cc2)c(=O)c1Cl [Compound Y, 3-chloro-5-(4-(4-trifluoromethoxyphenoxy)phenyl)-2,6-dimethylpyridin-4(1H)-one, reference compound] | < 0.125 µg/mL | 
3 | Cc1[nH]c(C)c(-c2ccc(Oc3cccc(C(F)(F)F)c3)cc2)c(=O)c1Cl [Compound Z, 3-Chloro-2,6-dimethyl-5-(4-{[3-(trifluoromethyl)phenyl]oxy}phenyl)-4(1H)pyridinone, reference compound] | < 0.125 µg/mL | 
4 | Cc1[nH]c(C)c(-c2ccc(OCc3ccc(OC(F)(F)F)cc3)nc2)c(=O)c1Br [Example 1, 5-Bromo-2,6-dimethyl-6′-{[4-(trifluoromethoxy)benzyl]oxy}-3,3′-bipyridin-4(1H)-one] | < 0.125 µg/mL | 
5 | Cc1[nH]c(C)c(-c2ccc(OCc3cccc(C(F)(F)F)c3)nc2)c(=O)c1Br [Example 2, 5-Bromo-2,6-dimethyl-6′-{[3-(trifluoromethyl)benzyl]oxy}-3,3′-bipyridin-4(1H)-one] | < 0.125 µg/mL | 
6 | Cc1[nH]c(C)c(-c2ccc(OCc3ccc(C(F)(F)F)cc3)nc2)c(=O)c1Br [Example 3, 5-Bromo-2,6-dimethyl-6′-{[4-(trifluoromethyl)benzyl]oxy}-3,3′-bipyridin-4(1H)-one] | < 0.125 µg/mL | 
7 | Cc1[nH]c(C)c(-c2ccc(OCc3ccccc3C(F)(F)F)nc2)c(=O)c1Br [Example 4, 5-Bromo-2,6-dimethyl-6′-{[2-(trifluoromethyl)benzyl]oxy}-3,3′-bipyridin-4(1H)-one] | < 0.125 µg/mL | 
8 | Cc1[nH]c(C)c(-c2ccc(OCc3cc(C(F)(F)F)cc(C(F)(F)F)c3)nc2)c(=O)c1Br [Example 5, 5-Bromo-2,6-dimethyl-6′-{[3,5-bis(trifluoromethyl)benzyl]oxy}-3,3′-bipyridin-4(1H)-one] | < 0.125 µg/mL | 
9 | Cc1[nH]c(C)c(-c2ccc(OCc3ccc(F)cc3)nc2)c(=O)c1Br [Example 6, 5-Bromo-6′-{[4-fluorobenzyl]oxy}-2,6-dimethyl-3,3′-bipyridin-4(1H)-one] | < 0.125 µg/mL | 
10 | Cc1[nH]c(C)c(-c2ccc(OCc3cc(F)cc(F)c3)nc2)c(=O)c1Br [Example 7, 5-Bromo-6′-{[3,5-difluorobenzyl]oxy}-2,6-dimethyl-3,3′-bipyridin-4(1H)-one] | < 0.125 µg/mL | 
11 | Cc1[nH]c(C)c(-c2ccc(OCc3ccc(OC(F)(F)F)cc3)nc2)c(=O)c1Cl [Example 8, 5-Chloro-2,6-dimethyl-6′-{[4-(trifluoromethoxy)benzyl]oxy}-3,3′-bipyridin-4(1H)-one] | < 0.125 µg/mL | 
12 | Cc1[nH]c(C)c(-c2ccc(OCc3cccc(C(F)(F)F)c3)nc2)c(=O)c1Cl [Example 9, 5-Chloro-2,6-dimethyl-6′-{[3-(trifluoromethyl)benzyl]oxy}-3,3′-bipyridin-4(1H)-one] | < 0.125 µg/mL | 
13 | Cc1[nH]c(C)c(-c2ccc(OCc3ccccc3C(F)(F)F)nc2)c(=O)c1Cl [Example 11, 5-Chloro-2,6-dimethyl-6′-{[2-(trifluoromethyl)benzyl]oxy}-3,3′-bipyridin-4(1H)-one] | < 0.125 µg/mL | 
14 | Cc1[nH]c(C)c(-c2ccc(OCc3cc(C(F)(F)F)cc(C(F)(F)F)c3)nc2)c(=O)c1Cl [Example 12, 5-Chloro-2,6-dimethyl-6′-{[3,5-bis(trifluoromethyl)benzyl]oxy}-3,3′-bipyridin-4(1H)-one] | < 0.125 µg/mL | 
15 | Cc1[nH]c(C)c(-c2ccc(OCc3ccc(F)cc3)nc2)c(=O)c1Cl [Example 13, 5-Chloro-6′-{[4-fluorobenzyl]oxy}-2,6-dimethyl-3,3′-bipyridin-4(1H)-one] | < 0.125 µg/mL | 
16 | Cc1[nH]c(C)c(-c2ccc(OCc3cc(F)cc(F)c3)nc2)c(=O)c1Cl [Example 14, 5-Chloro-6′-{[3,5-difluorobenzyl]oxy}-2,6-dimethyl-3,3′-bipyridin-4(1H)-one] | < 0.125 µg/mL | 
17 | Cc1[nH]c(C)c(-c2ccc(-c3ccc(OC(F)(F)F)cc3)nc2)c(=O)c1Br [Example 15, 5-Bromo-2,6-dimethyl-6′-{4-[(trifluoromethyl)oxy]phenyl}-3,3′-bipyridin-4(1H)-one] | < 0.125 µg/mL | 
18 | Cc1nc(C)c(-c2ccc(-c3ccc(Cl)cc3)cc2)c(O)c1Br [comparator X] |  | solubility at 24 h [1, 2]: < 1 µg/mL; solubility at 24 h [1, 3]: 5 to 10 µg/mL (≈ 12.9 to 25.7 µM); solubility at 24 h [1, 4]: 5 to 10 µg/mL (≈ 12.9 to 25.7 µM); solubility at 24 h [1, 5]: < 1 µg/mL; solubility at 24 h [1, 6]: < 1 µg/mL
19 | Cc1[nH]c(C)c(-c2ccc(Oc3ccc(OC(F)(F)F)cc3)cc2)c(=O)c1Cl [comparator Y] |  | solubility at 24 h [1, 2]: < 1 µg/mL; solubility at 24 h [1, 3]: < 1 µg/mL; solubility at 24 h [1, 4]: 1 to 5 µg/mL (≈ 2.44 to 12.2 µM); solubility at 24 h [1, 5]: < 1 µg/mL; solubility at 24 h [1, 6]: < 1 µg/mL
20 | Cc1[nH]c(C)c(-c2ccc(Oc3cccc(C(F)(F)F)c3)cc2)c(=O)c1Cl [comparator Z] |  | solubility at 24 h ([1]; aqueous buffer, pH 4.5 (Na citrate), read-out: Solubility at pH 4.5 (Na citrate)): < 1 µg/mL; solubility at 24 h ([1]; aqueous buffer, pH 7.4 (PBS), read-out: Solubility at pH 7.4 (PBS)): < 1 µg/mL; solubility at 24 h ([1]; fassif, read-out: Solubility in FaSSIF): < 1 µg/mL; solubility at 24 h ([1]; fessif, read-out: Solubility in FeSSIF): 1 to 5 µg/mL (≈ 2.54 to 12.7 µM); solubility at 24 h ([1]; simulated gastric fluid, pH 1 (HCl), read-out: Solubility at pH 1 (HCl)): < 1 µg/mL
